In US12459951B2, “Compounds that interact with RAS superfamily proteins for treatment of cancers, inflammatory diseases, rasopathies, and fibrotic disease” (SHY Therapeutics, LLC, priority 2022, dated 2025):

Columns and labels:
Rheb = molecular target: T1, Rheb (Homo sapiens, UniProt Q15382); assay: Rheb GTP Binding Domain Inhibition Assay; conditions: read-out: Rheb: % inh.
T1 construct: made in house
Procedure: Protocol for Cdc42 and Rheb GTP Binding Domain Inhibition Assay
The following method was developed as specific assay for cdc42 and Rheb proteins.
• 25 mM Tris-HCl, pH 7.4 • 27 mM KCl • 137 mM NaCl • 1 mM MgCl2 • 1 mM DTT Buffer-II: • 50 mM Tris-HCl, pH 7.0 • 1 mM MgCl2 • 1 mM DTT
The small GTPases proteins cdc42 and Rheb were expressed as His-tagged proteins. For the assay, the cdc42 and Rheb purified small GTPases proteins were diluted in Buffer-I or Buffer-II to a final concentration of 10-30 μg/mL. 200 μL of each diluted protein was added to a nickel-coated 96-well plate and incubated overnight at […]. Then the protein solution was discarded and 200 μL of Buffer-I or Buffer-II was added to each well in the presence of 1% DMSO. Compounds to be tested were added to the protein-coated wells at final concentration of 20 μM, and incubated for 3 hours at room temperature with and without 10-30 μg/mL of Sos added to the final hour of the incubation. When performing IC50 measurements a serial dilution of all tested concentrations was added. Then Cy3-GTP or Cy5-GTP was added to each well to a final concentration of 100 nM. The labeled GTP was incubated for 45 minutes at room temperature. Following GTP incubation, wells were washed 3× in Buffer-I or Buffer-II and 200 μL of Buffer-I or Buffer-II was added to each well. Following washes, the amount of bound labeled-GTP was measured using a SpectraMax M3 (Molecular Devices).

[1] = Kinetic Solubility Assay in pH 7.4 Buffer + 2% DMSO; format: physicochemical; conditions: phosphate-buffered saline pH 7.4 with 2% DMSO, aqueous buffer, kinetic from dmso stock, 25° C., two hours
Outline: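 Compound from 20 mM DMSO stock diluted to nominal 400 μM in PBS pH 7.4 with 2% DMSO, in duplicate, shaken 2 h at 25° C., then filtered. Filtrate quantified by UV absorbance (230-550 nm) against 10-200 μM calibration curves; effective range ~2-400 μM.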

[2] = Mouse Liver Microsome Metabolic Stability Assay; format: in vitro ADME; conditions: pH 7.4, Mouse liver microsomes, 37° C., NADPH, read-out: t½
Procedure: Biological Example 10: Assessment of Metabolic Stability in Mouse Liver Microsomes
Metabolic Stability Assay: Microsomal incubations were carried out in 96-well plates in 5 aliquots of 30 μL each (one for each time point). Liver microsomal incubation medium comprised of phosphate buffer (100 mM, pH 7.4), MgCl2 (3.3 mM), NADPH (3 mM), glucose-6-phosphate (5.3 mM), glucose-6-phosphate dehydrogenase (0.67 units/ml) with 0.42 mg of liver microsomal protein per mL. In the control reactions the NADPH-cofactor system was substituted with phosphate buffer. Test compounds (2 μM, final solvent concentration 1.6%) were incubated with microsomes at 37° C., shaking at 100 rpm. Each reaction was performed in duplicates. Five time points over 40 minutes were analyzed. The reactions were stopped by adding 5 volumes of methanol containing internal standard to incubation aliquots, followed by protein sedimentation by centrifuging at 5500 rpm for 4 minutes. Supernatants were analyzed using the HPLC system coupled with tandem mass spectrometer.
The elimination constant (kel), half-life (t1/2) and intrinsic clearance (Clint) were determined in plot of […] versus time, using linear regression analysis:
In order to indicate the quality of the linear regression analysis, the R (correlation coefficient) values are provided. In some cases, the last time point is excluded from the calculations to ensure acceptable logarithmic linearity of decay.
Table 9 show metabolic stability data for selected compounds tested in the Mouse Liver Microsome Metabolic Stability assay described above.

T1 sequence (Q15382 whole entry, the tested form may be a part): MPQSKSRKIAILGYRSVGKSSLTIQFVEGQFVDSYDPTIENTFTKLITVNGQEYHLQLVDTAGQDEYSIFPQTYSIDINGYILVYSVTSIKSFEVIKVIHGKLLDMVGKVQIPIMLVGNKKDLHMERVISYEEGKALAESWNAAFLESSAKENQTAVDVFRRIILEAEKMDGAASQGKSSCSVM

Row | inhibition at 20 µM (Rheb) [%] | solubility at 2 h [1] [µM] | half-life at 2 µM [2] [min] | SMILES
1 | 26 to 49 | < 10 | – | COc1cc(-c2cn3nc(-c4nccn4C)nc(Nc4cc(OC)ncn4)c3c2C)ccn1 [Compound 50, 6-(2-Methoxypyridin-4-yl)-N-(6-methoxypyrimidin-4-yl)-5-methyl-2-(1-methyl-1H-imidazol-2-yl)pyrrolo[2,1-f][1,2,4]triazin-4-amine]
2 | 76 to 100 | 10 to 30 | – | COc1ccnc(Nc2nc(-c3nccn3C)nn3cc(-c4ccn(C(C)C)n4)c(C)c23)n1 [Compound 53, 6-(1-Isopropyl-1H-pyrazol-3-yl)-N-(4-methoxypyrimidin-2-yl)-5-methyl-2-(1-methyl-1H-imidazol-2-yl)pyrrolo[2,1-f][1,2,4]triazin-4-amine]
3 | 76 to 100 | < 10 | – | Cc1c(-c2ccn(C(C)C)n2)cn2nc(-c3nccn3C)nc(Nc3ncccn3)c12 [Compound 54, 6-(1-Isopropyl-1H-pyrazol-3-yl)-5-methyl-2-(1-methyl-1H-imidazol-2-yl)-N-(pyrimidin-2-yl)pyrrolo[2,1-f][1,2,4]triazin-4-amine]
4 | 76 to 100 | 10 to 30 | – | Cc1c(-c2ccn(C(C)C)n2)cn2nc(-c3nccn3C)nc(Nc3ccncn3)c12 [Compound 55, 6-(1-Isopropyl-1H-pyrazol-3-yl)-5-methyl-2-(1-methyl-1H-imidazol-2-yl)-N-(pyrimidin-4-yl)pyrrolo[2,1-f][1,2,4]triazin-4-amine]
5 | 76 to 100 | 10 to 30 | – | Cc1c(-c2ccn(C(C)C)n2)cn2nc(-c3nccn3C)nc(Nc3ccccn3)c12 [Compound 57, 6-(1-Isopropyl-1H-pyrazol-3-yl)-5-methyl-2-(1-methyl-1H-imidazol-2-yl)-N-(pyridin-2-yl)pyrrolo[2,1-f][1,2,4]triazin-4-amine]
6 | 76 to 100 | 10 to 30 | – | COc1ccnc(Nc2nc(-c3nccn3C)nn3cc(-c4ccn(C(C)C)n4)c(C)c23)c1 [Compound 58, 6-(1-Isopropyl-1H-pyrazol-3-yl)-N-(4-methoxypyridin-2-yl)-5-methyl-2-(1-methyl-1H-imidazol-2-yl)pyrrolo[2,1-f][1,2,4]triazin-4-amine]
7 | 50 to 75 | < 10 | – | Cc1c(-c2ccn(C(C)C)n2)cn2nc(-c3nccn3C)nc(Nc3nnco3)c12 [Compound 59, N-(6-(1-Isopropyl-1H-pyrazol-3-yl)-5-methyl-2-(1-methyl-1H-imidazol-2-yl)pyrrolo[2,1-f][1,2,4]triazin-4-yl)-1,3,4-oxadiazol-2-amine]
8 | 0 | < 10 | – | Cc1c(-c2ccn(C(C)C)n2)cn2nc(-c3nccn3C)nc(Nc3cnccn3)c12 [Compound 62, 6-(1-Isopropyl-1H-pyrazol-3-yl)-5-methyl-2-(1-methyl-1H-imidazol-2-yl)-N-(pyrazin-2-yl)pyrrolo[2,1-f][1,2,4]triazin-4-amine]
9 | 50 to 75 | < 10 | – | COc1cc(Nc2nc(-c3nccn3C)nn3cc(-c4ccn(C)n4)c(C)c23)ncn1 [Compound 63, N-(6-Methoxypyrimidin-4-yl)-5-methyl-2-(1-methyl-1H-imidazol-2-yl)-6-(1-methyl-1H-pyrazol-3-yl)pyrrolo[2,1-f][1,2,4]triazin-4-amine]
10 | – | < 10 | > 10 | Cc1c(-c2ccn(C)n2)cn2nc(-c3nccn3C)nc(Nc3cc(-c4ccccn4)ccn3)c12 [Compound 248, N-([2,4′-Bipyridin]-2′-yl)-5-methyl-2-(1-methyl-1H-imidazol-2-yl)-6-(1-methyl-1H-pyrazol-3-yl)pyrrolo[2,1-f][1,2,4]triazin-4-amine]
11 | – | < 10 | < 10 | Cc1c(-c2ccn(C)n2)cn2nc(-c3nccn3C)nc(Nc3cc(-c4cccnc4)ccn3)c12 [Compound 250, N-([3,4′-Bipyridin]-2′-yl)-5-methyl-2-(1-methyl-1H-imidazol-2-yl)-6-(1-methyl-1H-pyrazol-3-yl)pyrrolo[2,1-f][1,2,4]triazin-4-amine]
12 | – | < 10 | < 10 | COc1cc(Nc2nc(-c3nccn3C)nn3cc(-c4ccn(C)n4)c(C)c23)n[nH]1 [Compound 252, N-(5-Methoxy-1H-pyrazol-3-yl)-5-methyl-2-(1-methyl-1H-imidazol-2-yl)-6-(1-methyl-1H-pyrazol-3-yl)pyrrolo[2,1-f][1,2,4]triazin-4-amine]
13 | – | > 30 | > 10 | Cc1cc(Nc2nc(-c3nccn3C)nn3cc(-c4ccn(C)n4)c(C)c23)n[nH]1 [Compound 255, 5-Methyl-2-(1-methyl-1H-imidazol-2-yl)-6-(1-methyl-1H-pyrazol-3-yl)-N-(5-methyl-1H-pyrazol-3-yl)pyrrolo[2,1-f][1,2,4]triazin-4-amine]
14 | – | < 10 | < 10 | CCOc1cc(Nc2nc(-c3nccn3C)nn3cc(-c4ccn(C)n4)c(C)c23)n[nH]1 [Compound 260, N-(5-Ethoxy-1H-pyrazol-3-yl)-5-methyl-2-(1-methyl-1H-imidazol-2-yl)-6-(1-methyl-1H-pyrazol-3-yl)pyrrolo[2,1-f][1,2,4]triazin-4-amine]
15 | – | < 10 | > 10 | Cc1c(-c2ccn(C)n2)cn2nc(-c3nccn3C)nc(Nc3cc(-c4ccccn4)[nH]n3)c12 [Compound 265, 5-Methyl-2-(1-methyl-1H-imidazol-2-yl)-6-(1-methyl-1H-pyrazol-3-yl)-N-(5-(pyridin-2-yl)-1H-pyrazol-3-yl)pyrrolo[2,1-f][1,2,4]triazin-4-amine]
16 | – | 10 to 30 | > 10 | Cc1[nH]nc(Nc2nc(-c3nccn3C)nn3cc(-c4ccn(C)n4)c(C)c23)c1C [Compound 267, N-(4,5-Dimethyl-1H-pyrazol-3-yl)-5-methyl-2-(1-methyl-1H-imidazol-2-yl)-6-(1-methyl-1H-pyrazol-3-yl)pyrrolo[2,1-f][1,2,4]triazin-4-amine]
17 | – | < 10 | < 10 | Cc1c(-c2ccn(C)n2)cn2nc(-c3nccn3C)nc(Nc3cc(C(C)C)[nH]n3)c12 [Compound 268, N-(5-Isopropyl-1H-pyrazol-3-yl)-5-methyl-2-(1-methyl-1H-imidazol-2-yl)-6-(1-methyl-1H-pyrazol-3-yl)pyrrolo[2,1-f][1,2,4]triazin-4-amine]
